According to patent publication US20230210999A1, “TARGETED PROTEASE DEGRADATION (TED) PLATFORM” (EUBULUS BIOTHERAPEUTICS INC., priority 2020, published 2023):
Like-named read-outs stand apart in the source and are kept apart here.

Experiments:
Format in all cases: cell-based, human
[1] = tested on: MV4;11 cells; assay: Cell proliferation experiment (Alamar blue, 72 h), MV4;11; settings: read-out: Inhibitory activity IC50 on MV4;11
Method: (§1) Reagents: RPMI-1640 medium, McCoy's 5A medium, IMDM medium, MEM medium, L-15 medium, fetal bovine serum. Penicillin-Streptomycin double antibody, trypsin, etc., 2-mercaptoethanol, NEAA, pyruvate, etc.
(§2) The cells were cultured in conventional ways, and the cells should be passed at least 2 generations before plating. Cells at the logarithmic growth phase were collected, prepared into single cell suspensions and counted. The concentration of cells was adjusted to the desired concentration, and cells were inoculated into a 96-well cell culture plate at 100 μl per well. 100 μL of complete medium of the test compound were added to each well, set up 2 duplicate wells for each concentration, and diluted with a 5-fold gradient, and continued to culture for 72 h. All cells were subjected to IC50 test for corresponding samples. The experimental results are shown in Test Example 4.
(§3) The fluorescence intensity of each well was detected using the Alarm blue method, and IC50 was calculated.
(§4) IC50 was calculated according to the following formula:
(§5) Y=Max+(Min−Max)/[1+(X/IC50)×Slope]
(§6) wherein Min, Max and Slope represent the minimum, maximum and slope respectively.

[2] = tested on: Daudi cells; assay: Cell proliferation experiment, Daudi; settings: Daudi cells, read-out: Inhibitory activity IC50 on Daudi
Method: as §1, §2, §3, §4, §5, §6

[3] = tested on: NCIH82 cells; assay: Cell proliferation experiment, NCI-H82; settings: read-out: Inhibitory activity IC50 on NCI-H82
Method: as §1, §2, §3, §4, §5, §6

[4] = Homo sapiens, MV4-11, MV4;11 cells
[5] = Homo sapiens, NCI-H82, NCI-H82 cells

IC50 [1, 4] [nM] | IC50 ([2]; Homo sapiens, Daudi) [nM] | IC50 [3, 5] [nM] | IC50 ([1]; MV4;11 cells) [nM] | IC50 [2] [nM] | IC50 ([3]; NCI-H82 cells) [nM] | SMILES
> 1000 | > 1000 | > 1000 |  |  |  | O=C1CCC(N2Cc3cc(NC(=O)CCOCCOCCN[C@H]4CC[C@@H](n5cc(-c6ccc(Nc7ncc8c(n7)-c7ccc(Cl)cc7C(c7c(F)cccc7F)=NC8)cc6)nn5)CC4)ccc3C2=O)C(=O)N1 (stereo partly drawn) [UB-180981]
> 1000 | > 1000 | > 1000 |  |  |  | O=C1CCC(N2Cc3cc(NC(=O)CCCCCCCN[C@H]4CC[C@@H](n5cc(-c6ccc(Nc7ncc8c(n7)-c7ccc(Cl)cc7C(c7c(F)cccc7F)=NC8)cc6)nn5)CC4)ccc3C2=O)C(=O)N1 (stereo partly drawn) [UB-180989]
100 to 1000 | > 1000 | > 1000 |  |  |  | O=C1CCC(N2Cc3cc(NC(=O)CCNCCOCCOCCn4cc([C@]5(Cc6cccc(Nc7nccs7)n6)CC[C@@H](Oc6cccc(Cl)c6F)CC5)nn4)ccc3C2=O)C(=O)N1 (stereo partly drawn) [UB-180994]
> 1000 | > 1000 | > 1000 |  |  |  | O=C1CCC(N2Cc3cc(NC(=O)CCCCCCCCCNCCn4cc([C@]5(Cc6cccc(Nc7nccs7)n6)CC[C@@H](Oc6cccc(Cl)c6F)CC5)nn4)ccc3C2=O)C(=O)N1 (stereo partly drawn) [UB-180995]
 |  |  | > 1000 | > 1000 | > 1000 | O=C1CCC(N2Cc3c(NC(=O)CCCCCCCCCN[C@H]4CC[C@@H](n5cc(-c6ccc(Nc7ncc8c(n7)-c7ccc(Cl)cc7C(c7c(F)cccc7F)=NC8)cc6)nn5)CC4)cccc3C2=O)C(=O)N1 (stereo partly drawn) [UB-180997]
 | > 1000 |  | > 1000 |  | > 1000 | O=C1CCC(N2Cc3cc(NC(=O)CCOCCOCC(O)COCCn4cc(-c5ccc(Nc6ncc7c(n6)-c6ccc(Cl)cc6C(c6c(F)cccc6F)=NC7)cc5)nn4)ccc3C2=O)C(=O)N1 (stereo not drawn) [UB-181005]
100 to 1000 | 100 to 1000 | > 1000 |  |  |  | O=C1CCC(N2Cc3cc(NC(=O)CNCCCOCCCCCn4cc(-c5ccc(Nc6ncc7c(n6)-c6ccc(Cl)cc6C(c6c(F)cccc6F)=NC7)cc5)nn4)ccc3C2=O)C(=O)N1 (stereo not drawn) [UB-181008]
100 to 1000 | > 1000 | > 1000 |  |  |  | O=C1CCC(N2Cc3cc(NC(=O)CNCCCOCCCCCn4cc([C@]5(Cc6cccc(Nc7nccs7)n6)CC[C@@H](Oc6cccc(Cl)c6F)CC5)nn4)ccc3C2=O)C(=O)N1 (stereo partly drawn) [UB-181009]
100 to 1000 | > 1000 | > 1000 |  |  |  | O=C1CCC(N2Cc3cc(C#CCCOCCOCCOCCNC4CCC(n5cc(-c6ccc(Nc7ncc8c(n7)-c7ccc(Cl)cc7C(c7c(F)cccc7F)=NC8)cc6)nn5)CC4)ccc3C2=O)C(=O)N1 (stereo not drawn) [UB-181010]
100 to 1000 | > 1000 | > 1000 |  |  |  | O=C1CCC(N2Cc3c(C#CCCNCCOCCOCCNC(=O)[C@]4(Cc5cccc(Nc6nccs6)n5)CC[C@@H](Oc5cccc(Cl)c5F)CC4)cccc3C2=O)C(=O)N1 (stereo partly drawn) [UB-181014]
100 to 1000 | > 1000 | > 1000 |  |  |  | O=C1CCC(N2Cc3cc(C#CCCNCCOCCOCCNC(=O)[C@]4(Cc5cccc(Nc6nccs6)n5)CC[C@@H](Oc5cccc(Cl)c5F)CC4)ccc3C2=O)C(=O)N1 (stereo partly drawn) [UB-181015]
100 to 1000 | > 1000 | > 1000 |  |  |  | O=C1CCC(N2Cc3cc(NC(=O)CCOCCOCCNCCn4cc(-c5ccc(Nc6ncc7c(n6)-c6ccc(Cl)cc6C(c6c(F)cccc6F)=NC7)cc5)nn4)ccc3C2=O)C(=O)N1 (stereo not drawn) [UB-181016]
> 1000 | > 1000 | > 1000 |  |  |  | O=C1CCC(N2Cc3cc(NC(=O)CCOCCOCCNCCNC(=O)[C@]4(Cc5cccc(Nc6nccs6)n5)CC[C@@H](Oc5cccc(Cl)c5F)CC4)ccc3C2=O)C(=O)N1 (stereo partly drawn) [UB-181018]
> 1000 | > 1000 | > 1000 |  |  |  | O=C1CCC(N2Cc3c(C#CCCNCCOCCOCCn4cc(-c5ccc(Nc6ncc7c(n6)-c6ccc(Cl)cc6C(c6c(F)cccc6F)=NC7)cc5)nn4)cccc3C2=O)C(=O)N1 (stereo not drawn) [UB-181027]

The next lines start with the compound.

SMILES | IC50 [1, 4] [nM] | IC50 ([2]; Homo sapiens, Daudi) [nM] | IC50 [3, 5] [nM] | IC50 ([1]; MV4;11 cells) [nM] | IC50 [2] [nM] | IC50 ([3]; NCI-H82 cells) [nM]
O=C1CCC(N2Cc3cc(NC(=O)CNCCOCCOCCOCCn4cc(-c5ccc(Nc6ncc7c(n6)-c6ccc(Cl)cc6C(c6c(F)cccc6F)=NC7)cc5)nn4)ccc3C2=O)C(=O)N1 (stereo not drawn) [UB-180976] | 100 to 1000 | > 1000 | > 1000 |  |  | 
O=C1CCC(N2Cc3cc(NC(=O)CCCCCCCNCCCn4cc(-c5ccc(Nc6ncc7c(n6)-c6ccc(Cl)cc6C(c6c(F)cccc6F)=NC7)cc5)nn4)ccc3C2=O)C(=O)N1 (stereo not drawn) [UB-180982] | 100 to 1000 | > 1000 | > 1000 |  |  | 
O=C1CCC(N2Cc3cc(NC(=O)CCCCCCCNCCn4cc(-c5ccc(Nc6ncc7c(n6)-c6ccc(Cl)cc6C(c6c(F)cccc6F)=NC7)cc5)nn4)ccc3C2=O)C(=O)N1 (stereo not drawn) [UB-180983] | 10 to 100 | 100 to 1000 | 100 to 1000 |  |  | 
O=C1CCC(N2Cc3c(NC(=O)CCCCCCCNCCCn4cc(-c5ccc(Nc6ncc7c(n6)-c6ccc(Cl)cc6C(c6c(F)cccc6F)=NC7)cc5)nn4)cccc3C2=O)C(=O)N1 (stereo not drawn) [UB-180987] | > 1000 | > 1000 | > 1000 |  |  | 
O=C1CCC(N2Cc3c(NC(=O)CCCCCCCN[C@H]4CC[C@@H](n5cc(-c6ccc(Nc7ncc8c(n7)-c7ccc(Cl)cc7C(c7c(F)cccc7F)=NC8)cc6)nn5)CC4)cccc3C2=O)C(=O)N1 (stereo partly drawn) [UB-180988] | > 1000 | > 1000 | > 1000 |  |  | 
O=C1CCC(N2Cc3c(NC(=O)CCCCCCCCCNCCn4cc(-c5ccc(Nc6ncc7c(n6)-c6ccc(Cl)cc6C(c6c(F)cccc6F)=NC7)cc5)nn4)cccc3C2=O)C(=O)N1 (stereo not drawn) [UB-180990] | 100 to 1000 | > 1000 | > 1000 |  |  | 
O=C1CCC(N2Cc3cc(NC(=O)CCNCCOCCOCCn4cc(-c5ccc(Nc6ncc7c(n6)-c6ccc(Cl)cc6C(c6c(F)cccc6F)=NC7)cc5)nn4)ccc3C2=O)C(=O)N1 (stereo not drawn) [UB-180991] | 100 to 1000 | > 1000 | > 1000 |  |  | 
O=C1CCC(N2Cc3c(NC(=O)CCCCCCCCCN[C@H]4CC[C@@H](n5cc(-c6ccc(Nc7ncc8c(n7)-c7ccc(Cl)cc7C(c7c(F)cccc7F)=NC8)cc6)nn5)CC4)cccc3C2=O)C(=O)N1 (stereo partly drawn) [UB-180996] | > 1000 | > 1000 | > 1000 |  |  | 
O=C1CCC(N2Cc3cc(NC(=O)CCNCCCOCCCCn4cc(-c5ccc(Nc6ncc7c(n6)-c6ccc(Cl)cc6C(c6c(F)cccc6F)=NC7)cc5)nn4)ccc3C2=O)C(=O)N1 (stereo not drawn) [UB-181000] | > 1000 | > 1000 | > 1000 |  |  | 
O=C1CCC(N2Cc3cc(NC(=O)CCNCCCOCCCCn4cc([C@]5(Cc6cccc(Nc7nccs7)n6)CC[C@@H](Oc6cccc(Cl)c6F)CC5)nn4)ccc3C2=O)C(=O)N1 (stereo partly drawn) [UB-181001] | > 1000 | > 1000 | > 1000 |  |  | 
O=C1CCC(N2Cc3c(NC(=O)CCCCCCCCCNCCn4cc([C@]5(Cc6cccc(Nc7nccs7)n6)CC[C@@H](Oc6cccc(Cl)c6F)CC5)nn4)cccc3C2=O)C(=O)N1 (stereo partly drawn) [UB-181002] | > 1000 | > 1000 | > 1000 |  |  | 
O=C1CCC(N2Cc3c(NC(=O)CCNCCOCCOCCn4cc([C@]5(Cc6cccc(Nc7nccs7)n6)CC[C@@H](Oc6cccc(Cl)c6F)CC5)nn4)cccc3C2=O)C(=O)N1 (stereo partly drawn) [UB-181003] | 100 to 1000 | > 1000 | > 1000 |  |  | 
O=C1CCC(N2Cc3cc(NC(=O)CCOCCOCCOCCN[C@H]4CC[C@@H](NC(=O)c5ccc(Nc6ncc7c(n6)-c6ccc(Cl)cc6C(c6c(F)cccc6F)=NC7)cc5)CC4)ccc3C2=O)C(=O)N1 (stereo partly drawn) [UB-181006] | > 1000 | > 1000 | > 1000 |  |  | 
NC(COCCCCCCCC(=O)Nc1ccc2c(c1)CN(C1CCC(=O)NC1=O)C2=O)Cn1cc(-c2ccc(Nc3ncc4c(n3)-c3ccc(Cl)cc3C(c3c(F)cccc3F)=NC4)cc2)nn1 (stereo not drawn) [UB-181007] | 100 to 1000 | 100 to 1000 | > 1000 |  |  | 
O=C1CCC(N2Cc3cc(NC(=O)CNCCCCOCCCCn4cc(-c5ccc(Nc6ncc7c(n6)-c6ccc(Cl)cc6C(c6c(F)cccc6F)=NC7)cc5)nn4)ccc3C2=O)C(=O)N1 (stereo not drawn) [UB-181011] | 100 to 1000 | 10 to 100 | > 1000 |  |  | 
O=C1CCC(N2Cc3cc(C#CCCNCCOCCOCCn4cc(-c5ccc(Nc6ncc7c(n6)-c6ccc(Cl)cc6C(c6c(F)cccc6F)=NC7)cc5)nn4)ccc3C2=O)C(=O)N1 (stereo not drawn) [UB-181012] | 100 to 1000 | > 1000 | > 1000 |  |  | 
O=C1CCC(N2Cc3c(NC(=O)CNCCCCOCCCCNC(=O)[C@]4(Cc5cccc(Nc6nccs6)n5)CC[C@@H](Oc5cccc(Cl)c5F)CC4)cccc3C2=O)C(=O)N1 (stereo partly drawn) [UB-181013] | 100 to 1000 | > 1000 | > 1000 |  |  | 
O=C1CCC(N2Cc3cc(NC(=O)CNCCCOCCCCCNC(=O)[C@]4(Cc5cccc(Nc6nccs6)n5)CC[C@@H](Oc5cccc(Cl)c5F)CC4)ccc3C2=O)C(=O)N1 (stereo partly drawn) [UB-181017] | 100 to 1000 | > 1000 | > 1000 |  |  | 
O=C1CCC(N2Cc3cc(NC(=O)CNCCCCOCCCCNC(=O)[C@]4(Cc5cccc(Nc6nccs6)n5)CC[C@@H](Oc5cccc(Cl)c5F)CC4)ccc3C2=O)C(=O)N1 (stereo partly drawn) [UB-181019] | 100 to 1000 | > 1000 | > 1000 |  |  | 
O=C1CCC(N2Cc3cc(NC(=O)CNCCCOCCOCCn4cc(-c5ccc(Nc6ncc7c(n6)-c6ccc(Cl)cc6C(c6c(F)cccc6F)=NC7)cc5)nn4)ccc3C2=O)C(=O)N1 (stereo not drawn) [UB-181020] | 100 to 1000 | > 1000 | > 1000 |  |  | 
